± gives the expanded uncertainty stated by the source.
Experiment: mn = molality of the nth substance listed, in mol/kg
Details: Liquid

NC(N)=O [urea] + O
Details | mass density [kg/m3]
274.15 K, 101 kPa, Vibrating tube method, m1 = 0.093 | 1001.57 ± 0.08
274.15 K, 101 kPa, Vibrating tube method, m1 = 0.1063 | 1001.81 ± 0.08
274.15 K, 101 kPa, Vibrating tube method, m1 = 0.141 | 1002.43 ± 0.08
274.15 K, 101 kPa, Vibrating tube method, m1 = 0.152 | 1002.62 ± 0.08
274.15 K, 101 kPa, Vibrating tube method, m1 = 0.1809 | 1003.14 ± 0.08
274.15 K, 101 kPa, Vibrating tube method, m1 = 0.2423 | 1004.22 ± 0.08
274.15 K, 101 kPa, Vibrating tube method, m1 = 0.4362 | 1007.6 ± 0.08
274.15 K, 101 kPa, Vibrating tube method, m1 = 0.5644 | 1009.79 ± 0.08
274.15 K, 101 kPa, Vibrating tube method, m1 = 1.008 | 1017.11 ± 0.09
274.15 K, 101 kPa, Vibrating tube method, m1 = 1.609 | 1026.44 ± 0.25
274.15 K, 101 kPa, Vibrating tube method, m1 = 2.505 | 1039.26 ± 0.25
275.15 K, 101 kPa, Vibrating tube method, m1 = 0.093 | 1001.6 ± 0.08
275.15 K, 101 kPa, Vibrating tube method, m1 = 0.1063 | 1001.84 ± 0.08
275.15 K, 101 kPa, Vibrating tube method, m1 = 0.141 | 1002.45 ± 0.08
275.15 K, 101 kPa, Vibrating tube method, m1 = 0.152 | 1002.64 ± 0.08
275.15 K, 101 kPa, Vibrating tube method, m1 = 0.1809 | 1003.16 ± 0.08
275.15 K, 101 kPa, Vibrating tube method, m1 = 0.2423 | 1004.23 ± 0.1
275.15 K, 101 kPa, Vibrating tube method, m1 = 0.4362 | 1007.59 ± 0.08
275.15 K, 101 kPa, Vibrating tube method, m1 = 0.5644 | 1009.77 ± 0.08
275.15 K, 101 kPa, Vibrating tube method, m1 = 1.008 | 1017.04 ± 0.09
275.15 K, 101 kPa, Vibrating tube method, m1 = 1.609 | 1026.31 ± 0.25
275.15 K, 101 kPa, Vibrating tube method, m1 = 2.505 | 1039.07 ± 0.25
276.15 K, 101 kPa, Vibrating tube method, m1 = 0.093 | 1001.61 ± 0.08
276.15 K, 101 kPa, Vibrating tube method, m1 = 0.1063 | 1001.85 ± 0.08
276.15 K, 101 kPa, Vibrating tube method, m1 = 0.141 | 1002.46 ± 0.1
276.15 K, 101 kPa, Vibrating tube method, m1 = 0.152 | 1002.65 ± 0.1
276.15 K, 101 kPa, Vibrating tube method, m1 = 0.1809 | 1003.16 ± 0.08
276.15 K, 101 kPa, Vibrating tube method, m1 = 0.2423 | 1004.22 ± 0.08
276.15 K, 101 kPa, Vibrating tube method, m1 = 0.4362 | 1007.56 ± 0.08
276.15 K, 101 kPa, Vibrating tube method, m1 = 0.5644 | 1009.73 ± 0.08
276.15 K, 101 kPa, Vibrating tube method, m1 = 1.008 | 1016.96 ± 0.09
276.15 K, 101 kPa, Vibrating tube method, m1 = 1.609 | 1026.17 ± 0.25
276.15 K, 101 kPa, Vibrating tube method, m1 = 2.505 | 1038.86 ± 0.22
277.15 K, 101 kPa, Vibrating tube method, m1 = 0.093 | 1001.61 ± 0.08
277.15 K, 101 kPa, Vibrating tube method, m1 = 0.1063 | 1001.85 ± 0.08
277.15 K, 101 kPa, Vibrating tube method, m1 = 0.141 | 1002.45 ± 0.08
277.15 K, 101 kPa, Vibrating tube method, m1 = 0.152 | 1002.64 ± 0.08
277.15 K, 101 kPa, Vibrating tube method, m1 = 0.1809 | 1003.15 ± 0.08
277.15 K, 101 kPa, Vibrating tube method, m1 = 0.2423 | 1004.2 ± 0.08
277.15 K, 101 kPa, Vibrating tube method, m1 = 0.4362 | 1007.52 ± 0.08
277.15 K, 101 kPa, Vibrating tube method, m1 = 0.5644 | 1009.67 ± 0.08
277.15 K, 101 kPa, Vibrating tube method, m1 = 1.008 | 1016.85 ± 0.09
277.15 K, 101 kPa, Vibrating tube method, m1 = 1.609 | 1026.02 ± 0.25
277.15 K, 101 kPa, Vibrating tube method, m1 = 2.505 | 1038.66 ± 0.23
278.15 K, 101 kPa, Vibrating tube method, m1 = 0.093 | 1001.59 ± 0.08
278.15 K, 101 kPa, Vibrating tube method, m1 = 0.1063 | 1001.82 ± 0.08
278.15 K, 101 kPa, Vibrating tube method, m1 = 0.141 | 1002.42 ± 0.08
278.15 K, 101 kPa, Vibrating tube method, m1 = 0.152 | 1002.61 ± 0.08
278.15 K, 101 kPa, Vibrating tube method, m1 = 0.1809 | 1003.12 ± 0.08
278.15 K, 101 kPa, Vibrating tube method, m1 = 0.2423 | 1004.17 ± 0.08
278.15 K, 101 kPa, Vibrating tube method, m1 = 0.4362 | 1007.46 ± 0.08
278.15 K, 101 kPa, Vibrating tube method, m1 = 0.5644 | 1009.6 ± 0.08
278.15 K, 101 kPa, Vibrating tube method, m1 = 1.008 | 1016.74 ± 0.09
278.15 K, 101 kPa, Vibrating tube method, m1 = 1.609 | 1025.85 ± 0.25
278.15 K, 101 kPa, Vibrating tube method, m1 = 2.505 | 1038.42 ± 0.24
278.15 K, 101 kPa, Vibrating tube method, m1 = 3.376 | 1049.57 ± 0.22
278.15 K, 101 kPa, Vibrating tube method, m1 = 4.33 | 1060.83 ± 0.21
278.15 K, 101 kPa, Vibrating tube method, m1 = 5.39 | 1072.16 ± 0.96
278.15 K, 101 kPa, Vibrating tube method, m1 = 8 | 1096.24 ± 0.87
278.15 K, 101 kPa, Vibrating tube method, m1 = 9.9 | 1110.86 ± 0.71
278.15 K, 101 kPa, Vibrating tube method, m1 = 12.8 | 1129.78 ± 0.67
278.15 K, 10000 kPa, Constant-volume piezometry, m1 = 0.1809 | 1007.91 ± 0.18
278.15 K, 10000 kPa, Constant-volume piezometry, m1 = 0.4362 | 1012.23 ± 0.18
278.15 K, 10000 kPa, Constant-volume piezometry, m1 = 0.5644 | 1014.35 ± 0.18
278.15 K, 10000 kPa, Constant-volume piezometry, m1 = 1.609 | 1030.49 ± 0.25
278.15 K, 10000 kPa, Constant-volume piezometry, m1 = 2.505 | 1042.94 ± 0.25
278.15 K, 10000 kPa, Constant-volume piezometry, m1 = 3.376 | 1053.98 ± 0.25
278.15 K, 10000 kPa, Constant-volume piezometry, m1 = 5.39 | 1076.38 ± 1.1
278.15 K, 10000 kPa, Constant-volume piezometry, m1 = 8 | 1100.31 ± 1.1
278.15 K, 10000 kPa, Constant-volume piezometry, m1 = 10.99 | 1122.33 ± 1.1
278.15 K, 10000 kPa, Constant-volume piezometry, m1 = 12.8 | 1133.68 ± 1.1
278.15 K, 25000 kPa, Constant-volume piezometry, m1 = 0.1809 | 1014.96 ± 0.26
278.15 K, 25000 kPa, Constant-volume piezometry, m1 = 0.4362 | 1019.23 ± 0.26
278.15 K, 25000 kPa, Constant-volume piezometry, m1 = 0.5644 | 1021.32 ± 0.26
278.15 K, 25000 kPa, Constant-volume piezometry, m1 = 1.609 | 1037.26 ± 0.32
278.15 K, 25000 kPa, Constant-volume piezometry, m1 = 2.505 | 1049.56 ± 0.32
278.15 K, 25000 kPa, Constant-volume piezometry, m1 = 3.376 | 1060.45 ± 0.33
278.15 K, 25000 kPa, Constant-volume piezometry, m1 = 5.39 | 1082.6 ± 1.1
278.15 K, 25000 kPa, Constant-volume piezometry, m1 = 8 | 1106.3 ± 1.1
278.15 K, 25000 kPa, Constant-volume piezometry, m1 = 10.99 | 1128.15 ± 1.2
278.15 K, 25000 kPa, Constant-volume piezometry, m1 = 12.8 | 1139.4 ± 1.2
278.15 K, 50000 kPa, Constant-volume piezometry, m1 = 0.1809 | 1026.22 ± 0.45
278.15 K, 50000 kPa, Constant-volume piezometry, m1 = 0.4362 | 1030.39 ± 0.46
278.15 K, 50000 kPa, Constant-volume piezometry, m1 = 0.5644 | 1032.44 ± 0.46
278.15 K, 50000 kPa, Constant-volume piezometry, m1 = 1.609 | 1048.03 ± 0.5
278.15 K, 50000 kPa, Constant-volume piezometry, m1 = 2.505 | 1060.07 ± 0.5
278.15 K, 50000 kPa, Constant-volume piezometry, m1 = 3.376 | 1070.75 ± 0.51
278.15 K, 50000 kPa, Constant-volume piezometry, m1 = 5.39 | 1092.51 ± 1.2
278.15 K, 50000 kPa, Constant-volume piezometry, m1 = 8 | 1115.83 ± 1.2
278.15 K, 50000 kPa, Constant-volume piezometry, m1 = 10.99 | 1137.36 ± 1.2
278.15 K, 50000 kPa, Constant-volume piezometry, m1 = 12.8 | 1148.51 ± 1.3
278.15 K, 75000 kPa, Constant-volume piezometry, m1 = 0.1809 | 1036.88 ± 0.66
278.15 K, 75000 kPa, Constant-volume piezometry, m1 = 0.4362 | 1040.96 ± 0.66
278.15 K, 75000 kPa, Constant-volume piezometry, m1 = 0.5644 | 1042.96 ± 0.66
278.15 K, 75000 kPa, Constant-volume piezometry, m1 = 1.609 | 1058.21 ± 0.7
278.15 K, 75000 kPa, Constant-volume piezometry, m1 = 2.505 | 1069.97 ± 0.71
278.15 K, 75000 kPa, Constant-volume piezometry, m1 = 3.376 | 1080.48 ± 0.71
278.15 K, 75000 kPa, Constant-volume piezometry, m1 = 5.39 | 1101.91 ± 1.3
278.15 K, 75000 kPa, Constant-volume piezometry, m1 = 8 | 1124.88 ± 1.3
278.15 K, 75000 kPa, Constant-volume piezometry, m1 = 10.99 | 1146.09 ± 1.4
278.15 K, 75000 kPa, Constant-volume piezometry, m1 = 12.8 | 1157.08 ± 1.4
278.15 K, 100000 kPa, Constant-volume piezometry, m1 = 0.1809 | 1046.98 ± 0.87
278.15 K, 100000 kPa, Constant-volume piezometry, m1 = 0.4362 | 1050.97 ± 0.87
278.15 K, 100000 kPa, Constant-volume piezometry, m1 = 0.5644 | 1052.94 ± 0.87
278.15 K, 100000 kPa, Constant-volume piezometry, m1 = 1.609 | 1067.87 ± 0.9
278.15 K, 100000 kPa, Constant-volume piezometry, m1 = 2.505 | 1079.44 ± 0.92
278.15 K, 100000 kPa, Constant-volume piezometry, m1 = 3.376 | 1089.73 ± 0.93
278.15 K, 100000 kPa, Constant-volume piezometry, m1 = 5.39 | 1110.78 ± 1.4
278.15 K, 100000 kPa, Constant-volume piezometry, m1 = 8 | 1133.5 ± 1.5
278.15 K, 100000 kPa, Constant-volume piezometry, m1 = 10.99 | 1154.43 ± 1.5
278.15 K, 100000 kPa, Constant-volume piezometry, m1 = 12.8 | 1165.23 ± 1.5
279.15 K, 101 kPa, Vibrating tube method, m1 = 0.093 | 1001.56 ± 0.08

From the NIST ThermoML archive (doi:10.1016/j.jct.2018.01.024)
